Source: US10638959B2, “Oral pH and buffering capacity modifiers” (CAO Group, LLC, priority 2010, dated 2020)
“Also recorded” adds a separate entry of the source.

Assay: Immediate release of calcium ion of various salts by a calcium test kit by EM Quant
Format: physicochemical
Settings: contact with water

Q: Which “Immediate release of calcium ion (availability of calcium ion)” value does the source give for `CC(O)C(=O)[O-].CC(O)C(=O)[O-].O.O.O.O.O.[Ca+2]` (centres unmarked) [Calcium lactate pentahydrate] here?
A: most readily available calcium ion source

Q: Which “Immediate release of calcium ion (availability of calcium ion)” value does the source give for “Calcium ascorbate [Calcium ascorbate (citrate)]” here?
A: most readily available calcium ion source; also recorded: provided calcium ions on contact with water
